Assay results as given in patent US8008333B2, “Single dose aromatase inhibitor for treating infertility” (Ares Trading S.A., priority 2001, dated 2011).
Where a name gives a salt, the structure may show the parent alone. Read-outs that look alike come from different tables or passages of the source.

Tests used:
[1] = tested on: endometrium of normal women; settings: reduction in glandular density, increase in vacuolated cells; cited from earlier work
[2] = tested on: low responders during ovarian stimulation; assay: letrozole with FSH stimulation in low responders; assay type: in vivo, human
women with PCOS = settings: PCOS group, cited from earlier work
ovulatory women = settings: ovulatory group, one patient; cited from earlier work
[3] = in vivo; cited from earlier work
[4] = tested on: ovulatory women with unexplained infertility and anovulatory women with PCOS; assay: letrozole in conjunction with FSH for controlled ovarian super ovulation; assay type: in vivo, human
[5] = tested on: infertile patients (PCOS, unexplained infertility)
Description: HCG 10,000 IU was given to trigger ovulation. Follicular development was monitored by transvaginal ultrasound and hormonal assays of estrogen and LH.

Structure (SMILES)	effect on the endometrium [1]	ovarian response to FSH stimulation [2]	pregnancy (women with PCOS; 3 patients) [%]	ovulation (women with PCOS; 9 of 12 cycles) [%]	pregnancy (ovulatory women) [%]	half-life [3]	FSH dose required for achievement of adequate ovarian super ovulation [4]	Endometrial thickness on hCG day ([5]; Letrozole 5 days cycle)	Estradiol on hCG day ([5]; Letrozole 5 days cycle)	Estradiol/mature follicle ([5]; Letrozole 5 days cycle)	Follicles >1.5 cm ([5]; Letrozole 5 days cycle)	LH ([5]; Letrozole 5 days cycle)	Endometrial thickness on hCG day ([5]; Letrozole single-dose cycles)	Estradiol on hCG day ([5]; Letrozole single-dose cycles)	Estradiol/mature follicle ([5]; Letrozole single-dose cycles)	Follicles >1.5 cm ([5]; Letrozole single-dose cycles)	LH ([5]; Letrozole single-dose cycles)	ovulation ([5]; single 20 mg dose on day 3, out of the 9 single-dose treatment cycles) [cycles]	pregnancy achieved ([5]; single 20 mg dose on day 3, seven patients)	characteristics of the single dose treatment cycles versus the 5-day treatment cycles ([5]; single 20 mg dose vs […] for 5 days)
CCN(CC)CCOc1ccc(C(=C(Cl)c2ccccc2)c2ccccc2)cc1 [CC, clomiphene citrate]	deleterious effect on the endometrium																			
N#Cc1ccc(C(c2ccc(C#N)cc2)n2cncn2)cc1 [letrozole]		improvement	25	75	10	around two	significantly lower	0.9 (0.2) cm	919 (782) pmol/L	462 (257) pmol/L	1.9 (0.2)	18.2 (16.2) IU/L	0.9 (0.11) cm	831 (359) pmol/L	390 (74) pmol/L	2.29 (1.3)	19.1 (12.7) IU/L	8	one	no significant difference
